Data as given in the NIST ThermoML archive (doi:10.1016/j.jct.2013.05.024).

Experiment: excess molar enthalpy (molar enthalpy of mixing); xn = mol fraction of the nth substance listed
Settings: 101.3 kPa, Liquid, Isoperibol calorimetry

CCOC(=O)C(=O)OCC [diethyl ethanedioate] + CO
excess molar enthalpy [kcal/mol]
Settings	288.2 K	298.2 K	313.2 K	328.2 K
x1 = 0.0493	–	0.0523	0.06	0.0674
x1 = 0.0494	0.0464	–	–	–
x1 = 0.1004	–	0.101	0.12	0.139
x1 = 0.1005	0.0887	–	–	–
x1 = 0.1593	–	0.15	0.176	0.204
x1 = 0.2003	–	0.1771	0.2096	0.2407
x1 = 0.2004	0.156	–	–	–
x1 = 0.2505	–	0.207	0.2419	0.2789
x1 = 0.2507	0.1845	–	–	–
x1 = 0.299	–	0.2323	0.2725	0.3126
x1 = 0.2991	0.2072	–	–	–
x1 = 0.3509	–	0.2545	0.2978	0.3406
x1 = 0.3511	0.2259	–	–	–
x1 = 0.4017	–	0.2706	0.316	0.3616
x1 = 0.4019	0.2419	–	–	–
x1 = 0.4494	–	0.2823	0.3284	0.3731
x1 = 0.4496	0.2522	–	–	–
x1 = 0.4973	–	0.2909	0.3387	0.3843
x1 = 0.4975	0.261	–	–	–
x1 = 0.5507	–	0.2942	0.3399	0.3843
x1 = 0.5509	0.2658	–	–	–
x1 = 0.5967	–	0.2935	0.3377	0.3798
x1 = 0.5969	0.2651	–	–	–
x1 = 0.6473	–	0.2856	0.3274	0.3633
x1 = 0.6475	0.2605	–	–	–
x1 = 0.7032	–	0.2694	0.3112	0.3389
x1 = 0.7033	0.2467	–	–	–
x1 = 0.7468	–	0.2588	0.2911	0.3105
x1 = 0.7469	0.2333	–	–	–
x1 = 0.8037	–	0.238	0.2593	0.2641
x1 = 0.8039	0.2072	–	–	–
x1 = 0.8449	–	0.209	0.2285	0.2216
x1 = 0.845	0.18	–	–	–
x1 = 0.9004	–	0.152	0.156	0.147
x1 = 0.9005	0.127	–	–	–
x1 = 0.9484	0.0676	0.0887	0.0944	0.0844

CCOC(=O)C(=O)OCC [diethyl ethanedioate] + CC(C)O
excess molar enthalpy [kcal/mol]
Settings	288.2 K	298.2 K	313.2 K	328.2 K
x1 = 0.0492	0.124	0.131	0.14	0.145
x1 = 0.0997	0.225	0.247	0.269	0.287
x1 = 0.1514	0.3023	0.332	0.3647	0.3903
x1 = 0.2009	0.3566	0.3936	0.4376	0.4658
x1 = 0.2507	0.4092	0.4541	0.5005	0.5368
x1 = 0.3005	0.4379	0.4852	0.5394	0.5741
x1 = 0.3499	0.4682	0.517	0.5717	0.6092
x1 = 0.3987	0.4837	0.5344	0.5896	0.635
x1 = 0.4504	0.4962	0.5461	0.6052	0.6417
x1 = 0.501	0.4976	0.5447	0.6033	0.6405
x1 = 0.55	0.4995	0.5442	0.5942	0.6317
x1 = 0.6018	0.4876	0.5284	0.5772	0.6126
x1 = 0.6515	0.4696	0.5072	0.5485	0.5774
x1 = 0.6985	0.4419	0.4763	0.5143	0.5385
x1 = 0.7478	0.4046	0.4319	0.4673	0.4847
x1 = 0.7996	0.354	0.3762	0.3984	0.4166
x1 = 0.8479	0.2935	0.308	0.3279	0.3356
x1 = 0.8985	0.217	0.223	0.238	0.235
x1 = 0.9515	0.118	0.112	0.114	0.121

CCOC(=O)C(=O)OCC [diethyl ethanedioate] + CCCO
excess molar enthalpy [kcal/mol]
Settings	288.2 K	298.2 K	313.2 K	328.2 K
x1 = 0.0505	0.106	0.113	0.123	0.135
x1 = 0.1001	0.187	0.202	0.232	0.249
x1 = 0.1509	0.2524	0.2758	0.3152	0.3415
x1 = 0.1998	0.3033	0.3315	0.3776	0.4118
x1 = 0.2491	0.3415	0.3795	0.4328	0.4675
x1 = 0.2986	0.3755	0.4118	0.4696	0.5146
x1 = 0.3478	0.3996	0.4441	0.5043	0.5516
x1 = 0.4003	0.4192	0.4656	0.5284	0.5717
x1 = 0.4482	0.4302	0.4749	0.5382	0.5858
x1 = 0.499	0.4395	0.484	0.5447	0.5906
x1 = 0.5484	0.4371	0.4802	0.5392	0.586
x1 = 0.6007	0.4302	0.4732	0.5249	0.5648
x1 = 0.6509	0.4149	0.4527	0.5041	0.5368
x1 = 0.6986	0.3924	0.4247	0.4708	0.5038
x1 = 0.7487	0.3609	0.3877	0.4295	0.4517
x1 = 0.8015	0.3167	0.3403	0.3671	0.3853
x1 = 0.8509	0.2631	0.281	0.2988	0.3112
x1 = 0.9028	0.192	0.196	0.21	0.217
x1 = 0.9503	0.101	0.108	0.109	0.108

CCOC(=O)C(=O)OCC [diethyl ethanedioate] + CCO
excess molar enthalpy [kcal/mol]
Settings	288.2 K	298.2 K	313.2 K	328.2 K
x1 = 0.0495	0.0698	0.0837	0.0949	0.104
x1 = 0.0994	0.135	0.161	0.185	0.205
x1 = 0.1508	0.194	0.222	0.257	0.2875
x1 = 0.2004	0.237	0.2679	0.3093	0.3468
x1 = 0.2497	0.2763	0.3083	0.3564	0.4006
x1 = 0.3009	0.3045	0.3411	0.3929	0.4379
x1 = 0.3502	0.3272	0.3654	0.4209	0.4706
x1 = 0.4003	0.3466	0.3846	0.4419	0.4933
x1 = 0.4508	0.3566	0.3989	0.4582	0.5081
x1 = 0.5011	0.3642	0.4051	0.463	0.5127
x1 = 0.5506	0.365	0.4051	0.4613	0.5112
x1 = 0.5986	0.3611	0.4001	0.4541	0.499
x1 = 0.6502	0.3511	0.385	0.4362	0.4775
x1 = 0.6996	0.3325	0.3638	0.4101	0.4474
x1 = 0.7525	0.3057	0.332	0.3731	0.4001
x1 = 0.8021	0.2713	0.2935	0.325	0.3456
x1 = 0.8473	0.2268	0.2481	0.2691	0.2878
x1 = 0.9034	0.164	0.172	0.19	0.194
x1 = 0.946	0.0997	0.101	0.116	0.116
